Laboratory results from patent US20100056526A1, “HETEROMONOCYCLIC COMPOUND AND USE THEREOF” (Takeda Pharmaceutical Company Limited, priority 2006, published 2010).

Key:
[1] = target: T1, PPARγ (Homo sapiens, UniProt P37231); assay: Evaluation of PPARγ activating action (luciferase reporter in PPARγ:RXRα:4ERPP/CHO-K1 cells); assay type: cell-based; conditions: CHO-K1, 24 h; test compound 10^−6 M; luciferase activity relative to control compound X (1 μM) = 100%, non-administration group = 0%; read-out: PPARγ activating action (activation % (10^−6 M))
T1 construct: expressed in transfected cells; host or cells: CHO-K1
T1 sequence (P37231 1-477 isoform P37231-2): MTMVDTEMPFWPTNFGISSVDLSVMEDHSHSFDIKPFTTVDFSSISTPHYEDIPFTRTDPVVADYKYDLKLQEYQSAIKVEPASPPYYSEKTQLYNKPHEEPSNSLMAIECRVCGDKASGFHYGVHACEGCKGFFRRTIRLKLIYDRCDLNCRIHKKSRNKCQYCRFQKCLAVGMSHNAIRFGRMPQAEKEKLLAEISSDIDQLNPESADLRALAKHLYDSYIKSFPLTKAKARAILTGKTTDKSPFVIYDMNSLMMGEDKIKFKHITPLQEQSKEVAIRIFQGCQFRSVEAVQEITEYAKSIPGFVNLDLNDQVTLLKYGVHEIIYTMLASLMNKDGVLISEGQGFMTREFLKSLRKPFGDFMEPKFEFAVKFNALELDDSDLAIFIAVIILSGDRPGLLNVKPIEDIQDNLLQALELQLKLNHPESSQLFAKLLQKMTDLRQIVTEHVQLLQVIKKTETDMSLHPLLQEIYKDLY
T1 sequence (P19793 1-462 partner): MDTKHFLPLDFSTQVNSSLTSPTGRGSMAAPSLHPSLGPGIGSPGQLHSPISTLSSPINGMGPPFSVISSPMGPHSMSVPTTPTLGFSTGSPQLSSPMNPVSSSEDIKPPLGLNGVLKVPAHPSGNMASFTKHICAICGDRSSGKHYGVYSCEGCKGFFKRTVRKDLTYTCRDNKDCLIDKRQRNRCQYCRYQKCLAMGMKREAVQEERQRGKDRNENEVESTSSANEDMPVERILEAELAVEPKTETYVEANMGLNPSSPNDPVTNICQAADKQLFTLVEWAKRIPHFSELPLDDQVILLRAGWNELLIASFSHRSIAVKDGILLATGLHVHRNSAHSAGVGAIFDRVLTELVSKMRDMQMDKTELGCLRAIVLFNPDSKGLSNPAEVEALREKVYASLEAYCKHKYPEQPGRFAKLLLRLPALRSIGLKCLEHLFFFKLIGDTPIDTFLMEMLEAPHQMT
In short: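 Activity is expressed as percent, where vehicle gives 0% and 1 μM compound X gives 100%, based on luciferase luminescence. Reporter CHO-K1 cells co-expressing PPARγ:RXRα with a 4ERPP-driven luciferase were incubated with test compound for one day at 37 °C in medium with 0.1% fatty acid-free BSA.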

[2] = target: T2, human AT1 receptor (Homo sapiens, UniProt P30556); assay: Binding assay using human AT1 receptor-expressing CHO-K1 cell membrane fraction ([125I]-angiotensin II); conditions: 22.5 pM [125I]-angiotensin II, 9 μg AT1 membrane, 1 hr room temperature; read-out: AT1 receptor binding inhibitory action (IC50 (nM))
T2 construct: expressed in transfected cells; host or cells: CHO-K1
T2 sequence (P30556 1-359): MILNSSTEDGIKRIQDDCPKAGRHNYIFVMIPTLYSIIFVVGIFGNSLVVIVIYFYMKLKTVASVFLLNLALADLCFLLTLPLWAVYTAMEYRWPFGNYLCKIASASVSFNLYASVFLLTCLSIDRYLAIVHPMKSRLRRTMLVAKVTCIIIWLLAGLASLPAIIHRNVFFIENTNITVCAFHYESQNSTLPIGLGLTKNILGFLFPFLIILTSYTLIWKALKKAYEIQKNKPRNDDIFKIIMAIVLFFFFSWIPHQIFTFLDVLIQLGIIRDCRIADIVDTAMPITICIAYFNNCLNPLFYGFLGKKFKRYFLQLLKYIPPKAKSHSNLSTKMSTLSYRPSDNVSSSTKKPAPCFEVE
In short: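 Radioligand displacement: test compound competed with [125I]-angiotensin II (22.5 pM) on stable CHO-K1 AT1 membrane fraction, 1 hr, room temperature, Tris pH 7.4/MgCl2 buffer ± 0.3 mg/mL BSA. Filtration then scintillation counting; 1 μM CV-11974 defined nonspecific binding. Values are IC50s.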

Compound | activation at 1 µM [1] | IC50 [2]
CCCc1nc(CC)n(-c2ccc(OC3(COC)CCCC3)cc2)c(=O)c1Cc1ccc(-c2ccccc2-c2noc(=O)[nH]2)cc1 [Example 389, 2-ethyl-3-(4-{[1-(methoxymethyl)cyclopentyl]oxy}phenyl)-5-{[2′-(5-oxo-4,5-dihydro-1,2,4-oxadiazol-3-yl)biphenyl-4-yl]methyl}-6-propylpyrimidin-4(3H)-one] | 18.1% | 1.8 nM
CCCc1nc(CC)n(-c2ccc(OC3(CO)CCCC3)cc2)c(=O)c1Cc1ccc(-c2ccccc2-c2noc(=O)[nH]2)cc1 [Example 390, 2-ethyl-3-(4-{[1-(hydroxymethyl)cyclopentyl]oxy}phenyl)-5-{[2′-(5-oxo-4,5-dihydro-1,2,4-oxadiazol-3-yl)biphenyl-4-yl]methyl}-6-propylpyrimidin-4(3H)-one] | 19.9% | 1.2 nM
CCCc1nc(CC)n(-c2ccc(OC(COCC)COCC)cc2)c(=O)c1Cc1ccc(-c2ccccc2-c2noc(=O)[nH]2)cc1 [Example 395, 3-{4-[2-ethoxy-1-(ethoxymethyl)ethoxy]phenyl}-2-ethyl-5-{[2′-(5-oxo-4,5-dihydro-1,2,4-oxadiazol-3-yl)biphenyl-4-yl]methyl}-6-propylpyrimidin-4(3H)-one] | 16% | 1.7 nM
CCCc1nc(C)n(-c2ccc(OC(C)C)cc2)c(=O)c1Cc1ccc(-c2ccccc2-c2noc(=O)[nH]2)cc1Cl [Example 396, 5-{[3-chloro-2′-(5-oxo-4,5-dihydro-1,2,4-oxadiazol-3-yl)biphenyl-4-yl]methyl}-3-(4-isopropoxyphenyl)-2-methyl-6-propylpyrimidin-4(3H)-one] | 50.6% | 2.2 nM
CCCc1nc(C)n(-c2ccc3c(c2)CC(C)(C)O3)c(=O)c1Cc1ccc(-c2ccccc2-c2noc(=O)[nH]2)cc1Cl [Example 397, 5-{[3-chloro-2′-(5-oxo-4,5-dihydro-1,2,4-oxadiazol-3-yl)biphenyl-4-yl]methyl}-3-(2,2-dimethyl-2,.3-dihydro-1-benzofuran-5-yl)-2-methyl-6-propylpyrimidin-4(3H)-one] | 48.6% | 2.1 nM
CCCc1nc(C)n(-c2ccc(OC(C)C)cc2)c(=O)c1Cc1ccc(-c2ccccc2-c2noc(=O)[nH]2)c(OC)c1 [Example 400, 3-(4-isopropoxyphenyl)-5-{[2-methoxy-2′-(5-oxo-4,5-dihydro-1,2,4-oxadiazol-3-yl)biphenyl-4-yl]methyl}-2-methyl-6-propylpyrimidin-4(3H)-one] | 21.3% | 2.8 nM
CCCc1nc(C)n(-c2ccc(OC(C)C)cc2)c(=O)c1Cc1ccc(-c2ccccc2-c2noc(=O)[nH]2)c(F)c1 [Example 401, 5-{[2-fluoro-2′-(5-oxo-4,5-dihydro-1,2,4-oxadiazol-3-yl)biphenyl-4-yl]methyl}-3-(4-isopropoxyphenyl)-2-methyl-6-propylpyrimidin-4(3H)-one] | 25.3% | 1.5 nM
CCCc1nc(C)n(-c2ccc3c(c2)CC(C)(C)O3)c(=O)c1Cc1ccc(-c2ccccc2-c2noc(O)n2)c(F)c1 [Example 402, 3-(2,2-dimethyl-2,3-dihydro-1-benzofuran-5-yl)-5-{[2-fluoro-2′-(5-oxo-4,5-dihydro-1,2,4-oxadiazol-3-yl)biphenyl-4-yl]methyl}-2-methyl-6-propylpyrimidin-4(3H)-one] | 24.1% | 1.8 nM
CCCc1nc(CC)n(-c2ccc(OC3CCOCC3)nc2)c(=O)c1Cc1ccc(-c2ccccc2-c2noc(=O)[nH]2)cc1 [Example 406, 2-ethyl-5-{[2′-(5-oxo-4,5-dihydro-1,2,4-oxadiazol-3-yl)biphenyl-4-yl]methyl}-6-propyl-3-[6-(tetrahydro-2H-pyran-4-yloxy)pyridin-3-yl]pyrimidin-4(3H)-one] | 41.9% | 1.5 nM
C=COc1ccc(-n2c(C)nc(CCC)c(Cc3ccc(-c4ccccc4-c4noc(=O)[nH]4)cc3F)c2=O)cc1 [Example 408, 5-{[3-fluoro-2′-(5-oxo-4,5-dihydro-1,2,4-oxadiazol-3-yl)biphenyl-4-yl]methyl}-2-methyl-6-propyl-3-[4-(vinyloxy)phenyl]pyrimidin-4(3H)-one] | 48.7% | 1.4 nM

Next, values leading:

activation at 1 µM [1] | IC50 [2] | Compound
28.2% | 1.2 nM | CCCc1nc(CC)n(-c2ccc(OC3CCC[C@H]3O)cc2)c(=O)c1Cc1ccc(-c2ccccc2-c2noc(=O)[nH]2)cc1 (stereo partly drawn) [Example 381, 2-ethyl-3-(4-{[(2R)-2-hydroxycyclopentyl]oxy}phenyl)-5-{[2′-(5-oxo-4,5-dihydro-1,2,4-oxadiazol-3-yl)biphenyl-4-yl]methyl}-6-propylpyrimidin-4(3H)-one]
27.2% | 1.2 nM | CCCc1nc(CC)n(-c2ccc(OC3CCCC3=O)cc2)c(=O)c1Cc1ccc(-c2ccccc2-c2noc(=O)[nH]2)cc1 (stereo not shown) [Example 382, 2-ethyl-3-{4-[(2-oxocyclopentyl)oxy]phenyl}-5-{[2′-(5-oxo-4,5-dihydro-1,2,4-oxadiazol-3-yl)biphenyl-4-yl]methyl}-6-propylpyrimidin-4(3H)-one]
34.4% | 1.6 nM | CCCc1nc(OC)n(-c2ccc(O[C@@H]3C[C@@H](C)O[C@@H](C)C3)cc2)c(=O)c1Cc1ccc(-c2ccccc2-c2noc(=O)[nH]2)cc1 [Example 388, 3-(4-{[(2R,4s,6S)-2,6-dimethyltetrahydro-2H-pyran-4-yl]oxy}phenyl)-2-methoxy-5-{-[2′-(5-oxo-4.,5-dihydro-1,2,4-oxadiazol-3-yl)biphenyl-4-yl]methyl}-6-propylpyrimidin-4(3H)-one]
18.9% | 1.7 nM | CCCc1nc(CC)n(-c2ccc(OC3CCOC(C)(C)C3)cc2)c(=O)c1Cc1ccc(-c2ccccc2-c2noc(=O)[nH]2)cc1 (stereo not shown) [Example 413, 3-{4-[(2,2-dimethyltetrahydro-2H-pyran-4-yl)oxy]phenyl}-2-ethyl-5-{[2′-(5-oxo-4,5-dihydro-1,2,4-oxadiazol-3-yl)biphenyl-4-yl]methyl}-6-propylpyrimidin-4(3H)-one]
45% | 1.1 nM | CCCc1nc(CC)n(-c2ccc(O[C@H]3CC[C@H](O)CC3)cc2)c(=O)c1Cc1ccc(-c2ccccc2-c2noc(=O)[nH]2)cc1 [Example 414, 2-ethyl-3-{4-[(trans-4-hydroxycyclohexyl)oxy]phenyl}-5-{[2′-(5-oxo-4,5-dihydro-1,2,4-oxadiazol-3-yl)biphenyl-4-yl]methyl}-6-propylpyrimidin-4(3H)-one]
49.7% | 1 nM | CCCc1nc(CC)n(-c2ccc(O[C@H]3CC[C@@H](O)CC3)cc2)c(=O)c1Cc1ccc(-c2ccccc2-c2noc(=O)[nH]2)cc1 [Example 415, 2-ethyl-3-{4-[(cis-4-hydroxycyclohexyl)oxy]phenyl}-5-{[2′-(5-oxo-4,5-dihydro-1,2,4-oxadiazol-3-yl)biphenyl-4-yl]methyl}-6-propylpyrimidin-4(3H)-one]
53.5% | 1.2 nM | CCCc1nc(CC)n(-c2ccc(OC3CCC(=O)CC3)cc2)c(=O)c1Cc1ccc(-c2ccccc2-c2noc(=O)[nH]2)cc1 [Example 416, 2-ethyl-3-{4-[(4-oxocyclohexyl)oxy]phenyl}-5-{[2′-(5-oxo-4,5-dihydro-1,2,4-oxadiazol-3-yl)biphenyl-4-yl]methyl}-6-propylpyrimidin-4(3H)-one]
